Source: patent US20070208040A1, “A2A ADENOSINE RECEPTOR ANTAGONISTS” (priority 2006, published 2007)
pKi: −log10 of the molar value.

Target: A2A adenosine receptor (UniProt P29274)
Test: A2A radioligand binding assay (displacement of 3H-MSX-2)
Design: species or system human
Conditions: displacement of 2 nM 3H-MSX-2 from 15 ug A2A membrane, 23° C., 2 hours
From the text: A tritiated adenosine A2A antagonist, 3-(3-hydroxypropyl)-7-methyl-8-(m-methoxystyryl)-1-propargylxanthine, (3H-MSX-2, specific activity: 80 Ci/mmol), was purchased from American Radiolabeled Chemicals, Inc (St. Louis, Mo.). A tritiated adenosine A1 antagonist, 1,3-Dipropyl-8-cyclopentylxanthine ([^3H]DPCPX, specific activity: 120 Ci/mmol) was purchased from Perkin Elmer (Boston, Mass.). A tritiated adenosine A2a antagonist, 4-(2-[7-amino-2-(2-furyl)[1,2,4]triazolo[2,3-a][1,3,5]triazin-5-ylamino]ethyl)phenol ([^3H]ZM241385 specific activity: 27.4 Ci/mmol) was purchased from American Radiolabeled Chemicals, Inc (St. Louis, Mo.). Adenosine Deaminase (ADA) was purchased from Roche Molecular Biochemicals (Nutley, N.J.). GTP was purchased from Sigma. Concentrated stock solution (10 mM) of compounds was dissolved in dimethylsulfoxide (DMSO), stored at −20° C., and diluted in Tris-EDTA buffer (50 mM Tris and 1 mM EDTA, 10 mM MgCl2, pH 7.4) for use in experiments. The final content of dimethylsulfoxide in Tris-EDTA buffer during experiments was not more than 1%. Male Sprague Dawley rats, weighted 250-400 g, 8-10 weeks old, were purchased from Charles River Labs (Wilmington, Mass.).
HEK293 (Human Embryonic Kidney 293) cells stably expressing human A2A adenosine receptor or human A2B adenosine receptor were maintained in DMEM supplemented with 10% fetal bovine serum, 2 mM L-glutamine, 100 IU/ml penicillin, 50 μg/ml streptomycin and 2 μg/ml puromycin. CHO (Chinese Hamster Ovary) cells stably expressing human A1 adenosine receptor or human A3 adenosine receptor were maintained in F12K medium supplemented with 10% fetal bovine serum, 2 mM L-glutamine, 100 IU penicillin, 50 μg streptomycin and 8 μg/ml puromycin. PC12 (rat pheochromocytoma) cells were cultured in F12K medium supplemented with 10% horse serum and 2.5% fetal bovine serum, 2 mM L-glutamine, 100 IU/ml penicillin, and 50 μg/ml streptomycin. All cells were maintained at 37° C. in a humidified 5% CO2/95% air incubator and recultivated 2 times per week.
Cultured cells in 150 mm^2 dishes were washed once with PBS, detached by scrapping, collected with buffer A (10 mM HEPES, 10 mM EDTA, pH 7.4) containing protease inhibitor cocktail. Cells were then homogenized by a handheld homogenizer at a speed of 4.5 for 1 min. The homogenate was centrifuged by a Beckman ultracentrifuge at a speed of 29,000 × g for 15 min. The pellets were resuspended in buffer HE (10 mM HEPES, 1 mM EDTA, pH 7.4, with protease inhibitor cocktail), centrifuged again at 29,000 × g for 15 min. The crude membrane was resuspended using buffer HE, and protein concentration was measured by the method of Lowery with BSA as standard. Similar procedures were used for membrane preparation for fresh rat tissues. All experimental procedures were done at 4° C. Membranes were aliquot and kept at −80° C.
The binding assays utilized 15 ug of A2A membrane (human recombinant A2A membrane, rat striatal membrane, or PC 12 cell membrane) that had been treated with adenosine deaminase and 50 mM Tris-EDTA buffer (pH=7.4) followed by mixing 2 μL of serially diluted DMSO stock solution of the compounds of this invention at concentrations ranging from 10 μM to 0.1 nM or the control received 2 μL of DMSO alone, then the tritiated antagonist 3-(3-hydroxypropyl)-7-methyl-8-(m-methoxystyryl)-1-propargylxanthine (^3H-MSX-2) in Tris-EDTA buffer (50 mM Tris, 1 mM EDTA, 10 mM MgCl2, pH of 7.4) was added to achieve a final concentration of 2 nM. After incubation at 23° C. for 2 hours, the solutions were filtered using a membrane harvester with multiple washing of the membranes (3×). The filter plates were counted in scintillation cocktail affording the amount of displacement ^3H-MSX-2 by the competitive binding compositions of this invention. Radioligand binding data was analyzed using GraphPad Prism version 4.0 (San Diego, Calif.). […]

SMILES	pKi
Cc1c(-c2ccco2)sc2[nH]c(=O)n(CC(C)C)c(=O)c12 [Example I, 6-(2-furyl)-5-methyl-3-(2-methylpropyl)-1,3-dihydrothiopheno[2,3-d]pyrimidine-2,4-dione]	7.12
CCn1c(=O)[nH]c2sc(-c3cccs3)c(C)c2c1=O [III, 3-ethyl-5-methyl-6-(2-thienyl)-1,3-dihydrothiopheno[2,3-d]pyrimidine-2,4-dione]	7.01
CCn1c(=O)[nH]c2sc(-c3ccco3)c(C)c2c1=O [IV, 3-ethyl-6-(2-furyl)-5-methyl-1,3-dihydrothiopheno[2,3-d]pyrimidine-2,4-dione]	6.98
C#CCn1c(=O)[nH]c2scc(C)c2c1=O [IX, 5-methyl-3-prop-2-ynyl-1,3-dihydrothiopheno[2,3-d]pyrimidine-2,4-dione]	6.44
CCn1c(=O)c2c(C)c(-c3ccccn3)sc2n(C)c1=O [L, 3-ethyl-1,5-dimethyl-6-(2-pyridyl)-1,3-dihydrothiopheno[2,3-d]pyrimidine-2,4-dione]	6.31
Cc1c(C2=N[C@@H](C)CO2)sc2[nH]c(=O)n(CC(C)C)c(=O)c12 [LI, 6-((4S)-4-methyl(1,3-oxazolin-2-yl))-5-methyl-3-(2-methylpropyl)-1,3-dihydrothiopheno[2,3-d]pyrimidine-2,4-dione]	7.32
C#CCn1c(=O)c2c(C)csc2n(C)c1=O [LII, 1,5-dimethyl-3-prop-2-ynyl-1,3-dihydrothiopheno[2,3-d]pyrimidine-2,4-dione]	6.14
Cc1c(C2=N[C@@H](C)CO2)sc2c1c(=O)n(CC(C)C)c(=O)n2C [LIII, 6-((4S)-4-methyl(1,3-oxazolin-2-yl))-1,5-dimethyl-3-(2-methylpropyl)-1,3-dihydrothiopheno[2,3-d]pyrimidine-2,4-dione]	6.52
CCn1c(=O)[nH]c2sc(-c3cccnc3OC)c(C)c2c1=O [LV, 3-ethyl-6-(2-methoxy(3-pyridyl))-5-methyl-1,3-dihydrothiopheno[2,3-d]pyrimidine-2,4-dione]	6.28
Cc1c(C2=NC[C@@H](C)O2)sc2[nH]c(=O)n(CC(C)C)c(=O)c12 [LVII, 6-((5R)-5-methyl(1,3-oxazolin-2-yl))-5-methyl-3-(2-methylpropyl)-1,3-dihydrothiopheno[2,3-d]pyrimidine-2,4-dione]	6.62
CC[C@H]1COC(c2sc3c(c2C)c(=O)n(CC(C)C)c(=O)n3C)=N1 [LVIII, 6-((4S)-4-ethyl(1,3-oxazolin-2-yl))-1,5-dimethyl-3-(2-methylpropyl)-1,3-dihydrothiopheno[2,3-d]pyrimidine-2,4-dione]	6.92
CCn1c(=O)[nH]c2sc(-c3ncco3)c(C)c2c1=O [V, 3-ethyl-5-methyl-6-(1,3-oxazol-2-yl)-1,3-dihydrothiopheno[2,3-d]pyrimidine-2,4-dione]	6.87
CCn1c(=O)[nH]c2sc(C3=NCCO3)c(C)c2c1=O [VII, 3-ethyl-5-methyl-6-(1,3-oxazolin-2-yl)-1,3-dihydrothiopheno[2,3-d]pyrimidine-2,4-dione]	6.82
CCn1c(=O)[nH]c2scc(C)c2c1=O [X, 3-ethyl-5-methyl-1,3-dihydrothiopheno[2,3-d]pyrimidine-2,4-dione]	6.40
Cc1csc2[nH]c(=O)n(C)c(=O)c12 [XIII, 3,5-dimethyl-1,3-dihydrothiopheno[2,3-d]pyrimidine-2,4-dione]	6.19
Cc1csc2[nH]c(=O)n(CC(C)C)c(=O)c12 [XIX, 5-methyl-3-(2-methylpropyl)-1,3-dihydrothiopheno[2,3-d]pyrimidine-2,4-dione]	6.11
CCn1c(=O)[nH]c2sc(C3=N[C@@H](C)CO3)c(C)c2c1=O [XLIII, 6-((4S)-4-methyl(1,3-oxazolin-2-yl))-3-ethyl-5-methyl-1,3-dihydrothiopheno[2,3-d]pyrimidine-2,4-dione]	7.03

Next, values leading:

pKi	SMILES
7.06	CCn1c(=O)[nH]c2sc(-c3ccoc3)c(C)c2c1=O [II, 3-ethyl-6-(3-furyl)-5-methyl-1,3-dihydrothiopheno[2,3-d]pyrimidine-2,4-dione]
6.39	CCn1c(=O)[nH]c2sc(-c3ccc(OC)nc3)c(C)c2c1=O [LIV, 3-ethyl-6-(6-methoxy(3-pyridyl))-5-methyl-1,3-dihydrothiopheno[2,3-d]pyrimidine-2,4-dione]
6.35	Cc1c(C2=NC[C@@H](C)O2)sc2c1c(=O)n(CC(C)C)c(=O)n2C [LIX, 6-((5R)-5-methyl(1,3-oxazolin-2-yl))-1,5-dimethyl-3-(2-methylpropyl)-1,3-dihydrothiopheno[2,3-d]pyrimidine-2,4-dione]
7.24	CC[C@H]1COC(c2sc3[nH]c(=O)n(CC(C)C)c(=O)c3c2C)=N1 [LVI, 6-((4S)-4-ethyl(1,3-oxazolin-2-yl))-5-methyl-3-(2-methylpropyl)-1,3-dihydrothiopheno[2,3-d]pyrimidine-2,4-dione]
6.86	CCn1c(=O)[nH]c2scc(-c3ccco3)c2c1=O [VI, 3-ethyl-5-(2-furyl)-1,3-dihydrothiopheno[2,3-d]pyrimidine-2,4-dione]
6.56	CNC(=O)c1sc2[nH]c(=O)n(C)c(=O)c2c1C [VIII, (3,5-dimethyl-2,4-dioxo(1,3-dihydrothiopheno[2,3-d]pyrimidin-6-yl))-n-methylcarboxamide]
6.34	CCn1c(=O)[nH]c2sc3c(c2c1=O)CCCC3 [XI, 3-ethyl-1,3,5,6,7,8-hexahydrobenzo[b]thiopheno[2,3-d]pyrimidine-2,4-dione]
6.25	CCn1c(=O)[nH]c2sc(-c3ccsc3)c(C)c2c1=O [XII, 3-ethyl-5-methyl-6-(3-thienyl)-1,3-dihydrothiopheno[2,3-d]pyrimidine-2,4-dione]
6.46	Cc1c(-c2ncco2)sc2c1c(=O)n(CC(C)C)c(=O)n2C [XL, 1,5-dimethyl-3-(2-methylpropyl)-6-(1,3-oxazol-2-yl)-1,3-dihydrothiopheno[2,3-d]pyrimidine-2,4-dione]
6.24	CCCn1c(=O)[nH]c2sc(C(=O)O)c(C)c2c1=O [XLI, 5-methyl-2,4-dioxo-3-propyl-1,3-dihydrothiopheno[2,3-d]pyrimidine-6-carboxylic acid]
6.11	CCn1c(=O)[nH]c2sc(C(=O)N[C@H](C)CO)c(C)c2c1=O [XLII, N—((1R)-2-hydroxy-isopropyl)(3-ethyl-5-methyl-2,4-dioxo(1,3-dihydrothiopheno[2,3-d]pyrimidin-6-yl))carboxamide]
6.34	CCn1c(=O)n(CC(C)C)c(=O)c2c(C)c(-c3ccco3)sc21 [XLIV, 1-ethyl-6-(2-furyl)-5-methyl-3-(2-methylpropyl)-1,3-dihydrothiopheno[2,3-d]pyrimidine-2,4-dione]
6.31	CCn1c(=O)c2c(C)c(-c3ccc[nH]3)sc2n(C)c1=O [XLIX, 3-ethyl-1,5-dimethyl-6-pyrrol-2-yl-1,3-dihydrothiopheno[2,3-d]pyrimidine-2,4-dione]
7.02	CCCn1c(=O)[nH]c2sc(C3=N[C@@H](C)CO3)c(C)c2c1=O [XLV, 6-((4S)-4-methyl(1,3-oxazolin-2-yl))-5-methyl-3-propyl-1,3-dihydrothiopheno[2,3-d]pyrimidine-2,4-dione]
6.26	CCn1c(=O)c2c(C)c(-c3ccoc3)sc2n(C)c1=O [XLVI, 3-ethyl-6-(3-furyl)-1,5-dimethyl-1,3-dihydrothiopheno[2,3-d]pyrimidine-2,4-dione]
